Data as given in patent US20220356186A1, “PERK INHIBITING PYRROLOPYRIMIDINE COMPOUNDS” (HiberCell, Inc., priority 2019, published 2022).
pIC50: −log10 of the molar value. Where two headings read alike, the source gives them in different places.

Experiments:
[1] = test system: GFP-eIF2α in HEK293 cells; assay: PERK cellular assay, TR-FRET in HEK293-EGFP-eIF2a cells after tunicamycin-induced ER stress; type: cell-based; conditions: HEK293-EGFP-eIF2a cells, tunicamycin 2 hours, read-out: Cellular eIF2α IC50
Summary of the method: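 Compounds were added 30 min before a 2 h tunicamycin ([…]) challenge of lentivirally made GFP-eIF2α HEK293 cells, 5000/well; lysate TR-FRET ratio was the read-out.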

[2] = biological target: T1, EIF2AK3 (PERK) catalytic domain (amino acids 536-1116) (Homo sapiens, UniProt Q9NZJ5); assay: PERK in vitro activity assay (isolated), TR-FRET kinase assay; type: biochemical; conditions: isolated PERK enzyme, 1.5 μM ATP; read-out: Biochemical IC50
T1 construct: EIF2AK3 (PERK) catalytic domain (amino acids 536-1116)
T1 sequence (Q9NZJ5 536-1116): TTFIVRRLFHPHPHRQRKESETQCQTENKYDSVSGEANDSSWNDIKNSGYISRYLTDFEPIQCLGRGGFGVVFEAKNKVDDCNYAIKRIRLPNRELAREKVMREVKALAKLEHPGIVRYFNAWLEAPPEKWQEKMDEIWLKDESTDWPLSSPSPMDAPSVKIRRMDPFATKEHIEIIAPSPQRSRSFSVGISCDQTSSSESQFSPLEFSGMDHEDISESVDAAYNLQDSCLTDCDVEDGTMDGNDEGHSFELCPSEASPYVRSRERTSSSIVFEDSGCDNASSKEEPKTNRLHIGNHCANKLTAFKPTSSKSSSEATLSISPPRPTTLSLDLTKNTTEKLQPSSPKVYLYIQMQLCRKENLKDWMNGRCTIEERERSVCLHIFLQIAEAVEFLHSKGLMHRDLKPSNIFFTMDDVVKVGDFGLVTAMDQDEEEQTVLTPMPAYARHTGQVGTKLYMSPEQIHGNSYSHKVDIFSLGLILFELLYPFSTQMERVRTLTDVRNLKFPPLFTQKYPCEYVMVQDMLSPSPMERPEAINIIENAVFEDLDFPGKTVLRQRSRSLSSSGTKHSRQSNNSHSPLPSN
Summary of the method: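 TR-FRET read-out: after EDTA stop (10 mM final), Tb-labelled phospho-eIF2a antibody (2 nM) for 90 min; IC50 via 4-parameter nonlinear fit. Reaction: PERK aa 536-1116, GFP-eIF2a 100-200 nM, HEPES pH 7.5 with MgCl2/EGTA/Brij-35, 45 min, room temperature, started by enzyme.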

Row | Compound | pIC50 ([1]; Homo sapiens, HEK293, 2 h) | pIC50 [2] | pIC50 [1]
1 | Cc1ccccc1CC(=O)Nc1ccc(-c2cn(C)c3ncnc(N)c23)c(C)c1 [Example 142, N-(4-(4-amino-7-methyl-7H-pyrrolo[2,3-d]pyrimidin-5-yl)-3-methylphenyl)-2-(o-tolyl)acetamide] | 7.30 to 7.59 | 7.60 to 9.00 | –
2 | Cc1nc(N)c2c(-c3cnc(NC(=O)C(O)c4cccc(C(F)(F)F)c4)cc3C)cn(C)c2n1 (stereo not drawn) [Example 132, N-(5-(4-amino-2,7-dimethyl-7H-pyrrolo[2,3-d]pyrimidin-5-yl)-4-methylpyriidn-2-yl)-2-hydroxy-2-(3-(trifluoromethyl)phenyl)acetamide] | – | 7.60 to 9.00 | 7.00 to 7.29
3 | Cc1nc(N)c2c(-c3ccc(NC(=O)C(O)c4cccc(Cl)c4)cc3C)cn(C)c2n1 (stereo not drawn) [Example 38, N-(4-(4-amino-2,7-dimethyl-7H-pyrrolo[2,3-d]pyrimidin-5-yl)-3-methylphenyl)-2-(3-chlorophenyl)-2-hydroxyacetamide] | – | 7.00 to 7.29 | 6.00 to 6.30
4 | Cc1nc(N)c2c(-c3ccc(NC(=O)C(O)c4cccc(F)c4)nc3C)cn(C)c2n1 (stereo not drawn) [Example 128, N-(5-(4-amino-2,7-dimethyl-7H-pyrrolo[2,3-d]pyrimidin-5-yl)-6-methylpyridin-2-yl)-2-(3-fluorophenyl)-2-hydroxyacetamide] | – | 6.00 to 6.30 | < 5.30
5 | Cc1cc(NC(=O)C(O)c2cccc(C(F)(F)F)c2)ccc1-c1cn(C)c2ncnc(N)c12 (stereo not drawn) [Example 47, N-(4-(4-amino-7-methyl-7H-pyrrolo[2,3-d]pyrimidin-5-yl)-3-methylphenyl)-2-hydroxy-2-(3-(trifluoromethyl)phenyl)acetamide] | – | 7.60 to 9.00 | 7.60 to 9.00
6 | Cc1nc(N)c2c(-c3ccc(NC(=O)C(O)c4cccc(C(F)(F)F)n4)cc3C)cn(C)c2n1 (stereo not drawn) [Example 62, N-(4-(4-amino-2,7-dimethyl-7H-pyrrolo[2,3-d]pyrimidin-5-yl)-3-methylphenyl)-2-hydroxy-2-(6-(trifluoromethyl)pyridin-2-yl)acetamide] | – | 7.00 to 7.29 | 5.52 to 5.70
7 | Cc1cc(F)cc(C(O)C(=O)Nc2ccc(-c3cn(C)c4nc(C)nc(N)c34)c(C)c2)c1 (stereo not drawn) [Example 57, N-(4-(4-amino-2,7-dimethyl-7H-pyrrolo[2,3-d]pyrimidin-5-yl)-3-methylphenyl)-2-(3-fluoro-5-methylphenyl)-2-hydroxyacetamide] | – | 7.30 to 7.59 | 6.60 to 7.00
8 | Cc1nc(N)c2c(-c3cc(F)c(NC(=O)C(O)c4cccc(F)c4)cc3F)cn(C)c2n1 (stereo not drawn) [Example 123, N-(4-(4-amino-2,7-dimethyl-7H-pyrrolo[2,3-d]pyrimidin-5-yl)-2,5-difluorophenyl)-2-(3-fluorophenyl)-2-hydroxyacetamide] | 7.30 to 7.59 | 7.60 to 9.00 | –
9 | Cc1nc(N)c2c(-c3ccc(NC(=O)C(O)c4cccc(Cl)c4)cc3C)cn(C)c2n1 (stereo not drawn) [Example 37, N-(4-(4-amino-2,7-dimethyl-7H-pyrrolo[2,3-d]pyrimidin-5-yl)-3-methylphenyl)-2-(3-chlorophenyl)-2-hydroxyacetamide] | – | 7.60 to 9.00 | 7.60 to 9.00
10 | CCc1cccc(C(O)C(=O)Nc2ccc(-c3cn(C)c4nc(C)nc(N)c34)c(C)c2)c1 (stereo not drawn) [Example 44, N-(4-(4-amino-2,7-dimethyl-7H-pyrrolo[2,3-d]pyrimidin-5-yl)-3-methylphenyl)-2-(3-ethylphenyl)-2-hydroxyacetamide] | – | 6.60 to 7.00 | 5.70 to 6.00
11 | Cc1nc(N)c2c(-c3ccc(NC(=O)C(O)c4ccccc4Cl)cc3C)cn(C)c2n1 (stereo not drawn) [Example 34, N-(4-(4-amino-2,7-dimethyl-7H-pyrrolo[2,3-d]pyrimidin-5-yl)-3-methylphenyl)-2-(2-chlorophenyl)-2-hydroxyacetamide] | 6.00 to 6.30 | 6.60 to 7.00 | –
12 | Cc1nc(N)c2c(-c3ccc(NC(=O)C(O)c4ccccc4C(F)(F)F)cc3F)cn(C)c2n1 (stereo not drawn) [Example 77, N-(4-(4-amino-2,7-dimethyl-7H-pyrrolo[2,3-d]pyrimidin-5-yl)-3-fluorophenyl)-2-hydroxy-2-(2-(trifluoromethyl)phenyl)acetamide] | 6.00 to 6.30 | 7.30 to 7.59 | –
